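A five-concentration, 48-hour dose response in 96-well plates underlies each endpoint, interpolated linearly between surrounding concentrations. TGI marks complete inhibition of growth.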
What was measured:
Test in all cases: NCI tumour cell line growth inhibition, 48 h
SW-620 colon = system: SW-620 colon
HCT-116 colon = system: HCT-116 colon
RXF 393 renal = system: RXF 393 renal
HCC-2998 colon = system: HCC-2998 colon
HOP-62 NSCLC = system: HOP-62 NSCLC
XF 498 CNS = system: XF 498 CNS
OVCAR-4 ovarian = system: OVCAR-4 ovarian
HCT-15 colon = system: HCT-15 colon
SF-268 CNS = system: SF-268 CNS
OVCAR-5 ovarian = system: OVCAR-5 ovarian
MALME-3M melanoma = system: MALME-3M melanoma
M19-MEL melanoma = system: M19-MEL melanoma
IGROV1 ovarian = system: IGROV1 ovarian
NCI-H226 lung = system: NCI-H226 lung
OVCAR-8 ovarian = system: OVCAR-8 ovarian
HL-60(TB) leukemia = system: HL-60(TB) leukemia
SN12C renal = system: SN12C renal
NCI/ADR-RES ovarian = system: NCI/ADR-RES ovarian
CAKI-1 renal = system: CAKI-1 renal
RPMI-8226 leukemia = system: RPMI-8226 leukemia
DLD-1 colon = system: DLD-1 colon
A549 NSCLC = system: A549 NSCLC
SK-MEL-28 melanoma = system: SK-MEL-28 melanoma
SNB-78 CNS = system: SNB-78 CNS
SK-MEL-5 melanoma = system: SK-MEL-5 melanoma
UACC-257 melanoma = system: UACC-257 melanoma
EKVX NSCLC = system: EKVX NSCLC
SF-295 CNS = system: SF-295 CNS
UO-31 renal = system: UO-31 renal
COLO 205 colon = system: COLO 205 colon
U251 CNS = system: U251 CNS
HOP-92 NSCLC = system: HOP-92 NSCLC
SK-OV-3 ovarian = system: SK-OV-3 ovarian
LOX IMVI melanoma = system: LOX IMVI melanoma
K-562 leukemia = system: K-562 leukemia
HOP-18 NSCLC = system: HOP-18 NSCLC
OVCAR-3 ovarian = system: OVCAR-3 ovarian
SNB-19 CNS = system: SNB-19 CNS
P388 leukemia = system: P388 leukemia
MOLT-4 leukemia = system: MOLT-4 leukemia
NCI-H23 lung = system: NCI-H23 lung
SF-539 CNS = system: SF-539 CNS
KM12 colon = system: KM12 colon
HT29 colon = system: HT29 colon
SK-MEL-2 melanoma = system: SK-MEL-2 melanoma
A498 renal = system: A498 renal
SN12K1 renal = system: SN12K1 renal
UACC-62 melanoma = system: UACC-62 melanoma
KM20L2 colon = system: KM20L2 colon
SNB-75 CNS = system: SNB-75 CNS
MCF7 breast = system: MCF7 breast
DMS 273 small cell lung = system: DMS 273 small cell lung
NCI-H460 lung = system: NCI-H460 lung

Question: `N/C(=N\N=C/c1cc(Cl)cc(Cl)c1O)NO` was tested. Which TGI (SW-620 colon) did it give?
Answer: Its TGI is 38.5 µM.

Question: And the TGI (HCT-116 colon)?
Answer: Its TGI is 12.3 µM.

Question: What about the TGI (RXF 393 renal) of the same compound?
Answer: The TGI was 26.8 µM.

Question: And the TGI (HCC-2998 colon)?
Answer: The TGI was 10.1 µM.

Question: And the TGI (HOP-62 NSCLC)?
Answer: Its TGI is 12.5 µM.

Question: And the TGI (XF 498 CNS)?
Answer: The TGI was 6.45 µM.

Question: What about the TGI (OVCAR-4 ovarian) of the same compound?
Answer: The TGI was 20.9 µM.

Question: And the TGI (HCT-15 colon)?
Answer: Its TGI is 17.8 µM.

Question: And the TGI (SF-268 CNS)?
Answer: The TGI was greater than 100 µM.

Question: And the TGI (OVCAR-5 ovarian)?
Answer: Its TGI is 33.5 µM.

Question: What about the TGI (MALME-3M melanoma) of the same compound?
Answer: Its TGI is 24 µM.

Question: What about the TGI (M19-MEL melanoma) of the same compound?
Answer: The TGI was 27 µM.

Question: And the TGI (IGROV1 ovarian)?
Answer: The TGI was 44.3 µM.

Question: And the TGI (NCI-H226 lung)?
Answer: The TGI was 9.82 µM.

Question: What about the TGI (OVCAR-8 ovarian) of the same compound?
Answer: The TGI was 19 µM.

Question: What about the TGI (HL-60(TB) leukemia) of the same compound?
Answer: The TGI was 0.694 µM.

Question: And the TGI (SN12C renal)?
Answer: Its TGI is 33.4 µM.

Question: What about the TGI (NCI/ADR-RES ovarian) of the same compound?
Answer: Its TGI is 26.6 µM.

Question: What about the TGI (CAKI-1 renal) of the same compound?
Answer: Its TGI is 10.1 µM.

Question: And the TGI (RPMI-8226 leukemia)?
Answer: Its TGI is 39.9 µM.

Question: And the TGI (DLD-1 colon)?
Answer: The TGI was greater than 100 µM.

Question: What about the TGI (A549 NSCLC) of the same compound?
Answer: Its TGI is 36.5 µM.

Question: What about the TGI (SK-MEL-28 melanoma) of the same compound?
Answer: The TGI was 44.7 µM.

Question: And the TGI (SNB-78 CNS)?
Answer: The TGI was greater than 100 µM.

Question: And the TGI (SK-MEL-5 melanoma)?
Answer: The TGI was 12.5 µM.

Question: And the TGI (UACC-257 melanoma)?
Answer: The TGI was 29.3 µM.

Question: And the TGI (EKVX NSCLC)?
Answer: The TGI was 37.6 µM.

Question: What about the TGI (SF-295 CNS) of the same compound?
Answer: Its TGI is 15.2 µM.

Question: And the TGI (UO-31 renal)?
Answer: Its TGI is 13.7 µM.

Question: What about the TGI (COLO 205 colon) of the same compound?
Answer: The TGI was greater than 43.7 µM.

Question: And the TGI (U251 CNS)?
Answer: Its TGI is greater than 100 µM.

Question: And the TGI (HOP-92 NSCLC)?
Answer: Its TGI is 46.8 µM.

Question: What about the TGI (SK-OV-3 ovarian) of the same compound?
Answer: Its TGI is 24.2 µM.

Question: And the TGI (LOX IMVI melanoma)?
Answer: Its TGI is 6.66 µM.

Question: And the TGI (K-562 leukemia)?
Answer: Its TGI is greater than 46.3 µM.

Question: And the TGI (HOP-18 NSCLC)?
Answer: Its TGI is greater than 100 µM.

Question: And the TGI (OVCAR-3 ovarian)?
Answer: Its TGI is 53.6 µM.

Question: And the TGI (SNB-19 CNS)?
Answer: The TGI was greater than 53.9 µM.

Question: What about the TGI (P388 leukemia) of the same compound?
Answer: Its TGI is 1.49 µM.

Question: What about the TGI (MOLT-4 leukemia) of the same compound?
Answer: The TGI was greater than 23 µM.

Question: What about the TGI (NCI-H23 lung) of the same compound?
Answer: The TGI was 19.8 µM.

Question: And the TGI (SF-539 CNS)?
Answer: The TGI was 8.34 µM.

Question: And the TGI (KM12 colon)?
Answer: Its TGI is 22.4 µM.

Question: What about the TGI (HT29 colon) of the same compound?
Answer: Its TGI is greater than 62.7 µM.

Question: What about the TGI (SK-MEL-2 melanoma) of the same compound?
Answer: Its TGI is 23.1 µM.

Question: What about the TGI (A498 renal) of the same compound?
Answer: The TGI was 18.8 µM.

Question: What about the TGI (SN12K1 renal) of the same compound?
Answer: Its TGI is 6.93 µM.

Question: And the TGI (UACC-62 melanoma)?
Answer: Its TGI is 6.73 µM.

Question: What about the TGI (KM20L2 colon) of the same compound?
Answer: The TGI was 30.2 µM.

Question: And the TGI (SNB-75 CNS)?
Answer: The TGI was 9.58 µM.

Question: What about the TGI (MCF7 breast) of the same compound?
Answer: Its TGI is 10.3 µM.

Question: What about the TGI (DMS 273 small cell lung) of the same compound?
Answer: The TGI was 11.9 µM.

Question: And the TGI (NCI-H460 lung)?
Answer: The TGI was 14.2 µM.
